Test results published in patent US6841548B2, “Pharmaceutical preparations containing estra-1,3,5(10)-triene derivatives” (Schering AG, priority 1994, dated 2005).
Values belong to the compound of their own block, whether it stands above or below them.

Legend:
ovariectomated rats [1] = experiment: Oral estrogenic effects: uterus weights in ovariectomated rats; assay type: in vivo, rat
Source text: (§1) The laboratory animals, adult female rats (breeder: HSD/WIN:WU) were ovariectomated on day 14. Treatment started two weeks later by a single oral application per day of the respective test substance. The dosages given for esters refer to the steroid portion of the substances. The tests were made in three groups (A, B, C) at various points in time. This is why there is a deviation in control group values. The tests of series A, B, and C can therefore be compared among each other if the values for the respective control groups are taken into account.
(§2) The procedure of allocating animals to groups was randomized. The experiment was carried out as a block test. The animals were weighed at the beginning and at the end of the experiment.
(§3) The start of treatment was defined as day 1 (=d1), treatment was finished on day 7 (=d7); the animals were killed on day 8, various organs (uteri, adrenal glands, liver) were removed, weighed and deep-frozen (−196° C.) for further examination.

ovariectomated rats [2] = experiment: Oral estrogenic effects: weights of adrenal glands in ovariectomated rats; assay type: in vivo, rat
Source text: as §1, §2, §3

ovariectomated rats [3] = experiment: Oral estrogen treatment: serum IGF1 (somatomedin C), RIA; assay type: in vivo, rat; parameters: unit not given here; details: Experiment A
Source text: as §1, §2, §3
(§4) Blood was taken from the retrobulbar plexus under ether anaesthesia prior to treatment (d0), and on (d4) and (d8). IGF1, angiotensin I, cholesterol and HDL cholesterol were determined in the serum obtained.
IGF1: RIA by bioMérieux Co.;

ovariectomated rats [4] = experiment: Hepatic parameters: total cholesterol levels in serum, enzymatic test; assay type: in vivo, rat; details: all doses
Protocol: The laboratory animals, adult female rats (breeder: HSD/WIN:WU) were ovariectomated on day 14. Treatment started two weeks later by a single oral application per day of the respective test substance. The dosages given for esters refer to the steroid portion of the substances. The tests were made in three groups (A, B, C) at various points in time.
as §2, §3, §4
(§5) cholesterol/HDL: enzymatic tests, photometric determination, reagents by Dr Bruno Lange GmbH.

ovariectomated rats [5] = experiment: Hepatic parameters: serum angiotensin I, modified RIA for renin activity; assay type: in vivo, rat; parameters: Angiotensin I: unit not given here; details: for Angiotensin I: Experiment A
Source text: as §1, §2, §3, §4
angiotensin: modified RIA for renin activity by Sorin Co.

ovariectomated rats [6] = experiment: Hepatic parameters: HDL cholesterol levels in serum, enzymatic test; assay type: in vivo, rat; details: Experiment A
Source text: as §1, §2, §3, §4, §5

[7] = Experiment C, 10 μg/animal/day p.o. d1-d7
[8] = Experiment A, 0.1 μg/animal/day p.o. d1-d7
[9] = Experiment A, 1 μg/animal/day p.o. d1-d7
[10] = Experiment A, 10 μg/animal/day p.o. d1-d7
[11] = Experiment A, 100 μg/animal/day p.o. d1-d7
[12] = Experiment B, 10 μg/animal/day p.o. d1-d7
[13] = day 4, 0.1 μg/animal/day p.o. d1-d7
[14] = day 4, 1 μg/animal/day p.o. d1-d7
[15] = day 4, 10 μg/animal/day p.o. d1-d7
[16] = day 4, 100 μg/animal/day p.o. d1-d7
[17] = day 8, 0.1 μg/animal/day p.o. d1-d7
[18] = day 8, 1 μg/animal/day p.o. d1-d7
[19] = day 8, 10 μg/animal/day p.o. d1-d7
[20] = day 8, 100 μg/animal/day p.o. d1-d7

Compound: CN(C)S(=O)(=O)Oc1ccc2c(c1)CC[C@@H]1[C@@H]2CC[C@]2(C)[C@@H](O)[C@H](O)C[C@@H]12 [J 989, 16α,17β-Dihydroxy-estra-1,3,5(10)-trien-3-yl N,N-dimethyl-sulfamate]
- melting point: 180 to 181 °C
- Uterus weights (mean value) (ovariectomated rats [1]; [7]): 182.79 mg
- Weights of adrenal glands (mean value) (ovariectomated rats [2]; [7]): 52.8 mg

- Angiotensin I (ovariectomated rats [5]; [13]): 376.2 ± 48.3
- Angiotensin I (ovariectomated rats [5]; [14]): 359.8 ± 53.4
- Angiotensin I (ovariectomated rats [5]; [15]): 412.8 ± 66.6
- Angiotensin I (ovariectomated rats [5]; [16]): 497.7 ± 69.0
- Angiotensin I (ovariectomated rats [5]; [17]): 449.5 ± 55.1
- Angiotensin I (ovariectomated rats [5]; [18]): 392.9 ± 32.0
- Angiotensin I (ovariectomated rats [5]; [19]): 335.5 ± 24.9
- Angiotensin I (ovariectomated rats [5]; [20]): 464.3 ± 16.7
- Effect on angiotensin I (AI) values, in words (ovariectomated rats [5]; at any dose throughout the experiment): no recognizable effect
- HDL cholesterol levels (mean value ± standard deviation) (ovariectomated rats [6]; [13]): 49.1 ± 7.8 mg/dL
- HDL cholesterol levels (mean value ± standard deviation) (ovariectomated rats [6]; [14]): 50.9 ± 6.1 mg/dL
- HDL cholesterol levels (mean value ± standard deviation) (ovariectomated rats [6]; [15]): 55.0 ± 6.9 mg/dL
- HDL cholesterol levels (mean value ± standard deviation) (ovariectomated rats [6]; [16]): 43.7 ± 7.6 mg/dL
- HDL cholesterol levels (mean value ± standard deviation) (ovariectomated rats [6]; [17]): 51.0 ± 4.6 mg/dL
- HDL cholesterol levels (mean value ± standard deviation) (ovariectomated rats [6]; [18]): 52.3 ± 4.1 mg/dL
- HDL cholesterol levels (mean value ± standard deviation) (ovariectomated rats [6]; [19]): 51.5 ± 3.9 mg/dL
- HDL cholesterol levels (mean value ± standard deviation) (ovariectomated rats [6]; [20]): 46.0 ± 9.2 mg/dL
Compound: C[C@]12CC[C@@H]3c4ccc(O)cc4CC[C@H]3[C@@H]1CC[C@@H]2O [Example E2, estradiol]
- IGF1 (= somatomedin C) (ovariectomated rats [3]; 100 μg/animal/day p.o. d1-d7, d 0 (prior to treatment)): 717.4 ± 80.8
- IGF1 (= somatomedin C) (ovariectomated rats [3]; 100 μg/animal/day p.o. d1-d7, d 4): 623.6 ± 100.0
- IGF1 (= somatomedin C) (ovariectomated rats [3]; 100 μg/animal/day p.o. d1-d7, d 8): 601.1 ± 108.8
- Uterus weights (mean value) (ovariectomated rats [1]; [8]): 123.3 mg
- Uterus weights (mean value) (ovariectomated rats [1]; [9]): 128.9 mg
- Uterus weights (mean value) (ovariectomated rats [1]; [10]): 130.7 mg
- Uterus weights (mean value) (ovariectomated rats [1]; [11]): 285.4 mg
- Uterus weights (mean value) (ovariectomated rats [1]; [12]): 182.3 mg
- Effect on cholesterol levels in the blood (total and HDL), in words (ovariectomated rats [4]): did not reduce cholesterol levels in the blood
- Weights of adrenal glands (mean value) (ovariectomated rats [2]; [8]): 49.3 mg
- Weights of adrenal glands (mean value) (ovariectomated rats [2]; [9]): 57.9 mg
- Weights of adrenal glands (mean value) (ovariectomated rats [2]; [10]): 61.6 mg
- Weights of adrenal glands (mean value) (ovariectomated rats [2]; [11]): 54.4 mg
- Weights of adrenal glands (mean value) (ovariectomated rats [2]; [12]): 54.4 mg
- Influence on the angiotensin I level, summary in words (ovariectomated rats [5]; dose-action relationships on days 4 and 8): at best has marginal stimulating influence

Compound: C[C@]12CC[C@@H]3c4ccc(O)cc4CC[C@H]3[C@@H]1C[C@@H](O)[C@@H]2O [Example E3, estratriol]
- Uterus weights (mean value) (ovariectomated rats [1]; [7]): 301.94 mg
- Weights of adrenal glands (mean value) (ovariectomated rats [2]; [7]): 52.2 mg

Compound: CN(C)S(=O)(=O)Oc1ccc2c(c1)CC[C@@H]1[C@@H]2CC[C@]2(C)[C@@H](O)C[C@@H]3C[C@]312 [J 982, 17β-Hydroxy-14α,15α-methylen-estra-1,3,5(10)-trien-3-yl N,N-dimethyl-sulfamate]
- Uterus weights (mean value) (ovariectomated rats [1]; [12]): 193.4 mg
- Weights of adrenal glands (mean value) (ovariectomated rats [2]; [12]): 55.3 mg

Compound: C#CC1(O)CCC2C3CCc4cc(OS(=O)(=O)N5CCCC5)ccc4C3CCC21C (stereo not drawn) [J 272, 17β-Hydroxy-19-nor-17α-pregna-1,3,5(10)-trien-20-in-3-yl N,N-pyrrolidinosulfonate]
- Uterus weights (mean value) (ovariectomated rats [1]; [12]): 620.7 mg
- Weights of adrenal glands (mean value) (ovariectomated rats [2]; [12]): 57.5 mg

Compound: C[C@]12CC[C@@H]3c4ccc(O)cc4CC[C@H]3[C@@H]1CCC2=O [Example E1, estrone]
- Uterus weights (mean value) (ovariectomated rats [1]; [12]): 170.63 mg
- Weights of adrenal glands (mean value) (ovariectomated rats [2]; [12]): 49.8 mg
